Data as given in US20230103631A1, “PEPTIDES AS SELECTIVE GIP RECEPTOR AGONISTS” (Sanofi, priority 2020, published 2023).
*1 amine or outer side, *2 acyl side, *3 side chain or, on linkers, in order; H or OH if unused. Where a SMILES comes first, the peptide text is derived from it. Side-chain parts run from the residue outwards. [ ]: non-standard residue; d: D form. The star is where a group is joined. C18 diacid = O=C(O)CCCCCCCCCCCCCCCCC(=O)*; γGlu = O=C(O)[C@H](CCC(=O)[*:2])N[*:1]; AEEA = NCCOCCOCC(=O)O; Aib = CC(C)(N)C(=O)O

Assays:
[1] = ThT assay for the assessment of physical stability; assay type: physicochemical; settings: ThT buffer system A: 100 mM phosphate buffer pH 7.4; 3 mg/ml, 37° C.
Text: Low physical stability of a peptide solution may lead to amyloid fibril formation, which is observed as well-ordered, thread-like macromolecular structures in the sample, which eventually may lead to gel formation. Thioflavin T (ThT) is widely used to visualize and quantify the presence of misfolded protein aggregates [Biancalana et al., Biochim. Biophys. Acta 2010, 1804(7), 1405]. […] Enzymol. 1999, 309, 274]. The time course for fibril formation often follows the characteristic shape of a sigmoidal curve and can be separated into three regions: a lag phase, a fast growth phase, and a plateau phase.
The typical fibril formation process starts with the lag phase in which the amount of partially folded peptide turned into fibrils is not significant enough to be detected. The lag-time corresponds to the time the critical mass of the nucleus is built. Afterwards, a drastic elongation phase follows, and fibril concentration increases rapidly.
Investigations were carried out to determine fibrillation tendencies under stress conditions by shaking at 37° C. within Fluoroskan Ascent FL or Fluoroskan Ascent.
For the tests in Fluoroskan Ascent (FL), 200 μl sample were placed into a 96-well mictrotiter plate PS, flat bottom, Greiner Fluotrac No. 655076. Plates were sealed with Scotch Tape (Qiagen). Samples were stressed by continuous cycles of 10 sec shaking at 960 rpm and 50 sec rest period at 37° C. The kinetic was monitored by measuring fluorescence intensity every 20 min.
Peptides were diluted in a buffer system to a final concentration of 3 mg/ml. 20 μl of a 10.1 mM ThT solution in H2O were added to 2 ml of peptide solution to receive a final concentration of 100 μM ThT. For each sample eight replicates were tested.
ThT buffer system A) 100 mM phosphate buffer pH 7.4
ThT buffer system B) 100 mM phosphate buffer pH 7.4, 2.7 mg/ml m-cresol
Lag time in hours (h) in Thioflavin T (ThT) assay of peptide samples was determined in ThT buffer system A as described in Methods.

[2] = Dynamic light scattering (DLS) for the assessment of physical stability; assay type: physicochemical
Procedure, shortened: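 Measured by dynamic light scattering (830 nm, 25 °C) with NNLS fitting: hydrodynamic radius via Stokes-Einstein, plus intensity and mass contribution, mean of 3-6 replicates. Samples were 300 μM (purity-based target) in phosphate pH 7.4 buffers, plain or containing propylene glycol/phenol or m-cresol, filtered 0.22 μm.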

[3] = Pharmacokinetic evaluation in rats; assay type: in vivo; settings: male, SD, rat, plasma
Description: Compounds were administered in a suitable buffer system, e.g. PBS buffer solution at pH7.4 or DPBS solution at concentrations of 0.05, 0.1, 0.5 or 1 mg/ml depending on dose, species and administration volume.
Male SD rats were dosed 0.25 mg/kg, 0.5 mg/kg or 1 mg/kg intravenously (i.v.) or subcutaneously (s.c.). Blood samples were collected after 0.08, 0.25, 0.5, 1, 2, 4, 8, 24, 32, and 48 h post i.v. application and 0.25, 0.5, 1, 2, 4, 8, 24, 32, and 48 h post s.c. application, respectively. Plasma samples were analyzed after protein precipitation via liquid chromatography mass spectrometry (LC/MS). PK parameters and half-life were calculated using Phoenix-WinNonlin 8.1 using a non-compartmental model and linear trapezoidal interpolation calculation.
Pharmacokinetic profiles were determined as described in Methods.

[4] = DLS buffer system A, 4 weeks storage at 40° C.
[5] = DLS buffer system B (phenol), 0 weeks
[6] = DLS buffer system B (phenol), 4 weeks storage at 40° C.

CC[C@H](C)[C@H](NC(=O)[C@H](Cc1ccccc1)NC(=O)[C@H](CCC(=O)O)NC(=O)[C@H](CCC(=O)O)NC(=O)[C@H](CCC(N)=O)NC(=O)[C@H](Cc1c[nH]cn1)NC(=O)[C@@H](NC(=O)[C@H](CCCNC(=N)N)NC(=O)[C@H](CC(=O)O)NC(=O)[C@H](CCCCNC(=O)COCCOCCNC(=O)COCCOCCNC(=O)CC[C@H](NC(=O)CCCCCCCCCCCCCCCCC(=O)O)C(=O)O)NC(=O)C(C)(C)NC(=O)[C@@H](NC(=O)[C@H](CO)NC(=O)[C@H](CC(C)C)NC(=O)[C@H](CC(=O)O)NC(=O)[C@H](CO)NC(=O)[C@@H](NC(=O)[C@H](Cc1ccccc1)NC(=O)[C@@H](NC(=O)CNC(=O)[C@H](CCC(=O)O)NC(=O)C(C)(C)NC(=O)[C@@H](N)Cc1ccc(O)cc1)[C@@H](C)O)[C@@H](C)CC)[C@@H](C)CC)[C@@H](C)CC)C(=O)N[C@@H](CCC(=O)O)C(=O)N[C@@H](Cc1c[nH]c2ccccc12)C(=O)N[C@@H](CC(C)C)C(=O)N[C@@H](CC(C)C)C(=O)N[C@@H](C)C(=O)N[C@@H](CCC(N)=O)C(=O)NCC(=O)N1CCC[C@H]1C(=O)N[C@@H](CO)C(=O)N[C@@H](CO)C(=O)NCC(=O)N[C@@H](C)C(=O)N1CCC[C@H]1C(=O)N1CCC[C@H]1C(=O)N1CCC[C@H]1C(=O)N[C@@H](CO)C(N)=O [SEQ ID NO: 9, H2N-Y-Aib-E-G-T-F-I-S-D-I-S-I-Aib-K[{AEEA}2-gGlu-C18OH]-DRIHQEEFIEWILAQGPSSGAPPPS-NH2] (H-Y[Aib]EGTFISDLSI[Aib]K([AEEA-AEEA-γGlu-C18 diacid])DRIHQEEFIEWLLAQGPSSGAPPPS-NH2)
Increase in FI [1]: no | Lag time before increase [1]: >45 h | I and SD (Scattering Intensity) ([2]; DLS buffer system A, 0 weeks): 80 ± 3% | M and SD (Mass Contribution) ([2]; DLS buffer system A, 0 weeks): 100 ± 0% | apparent Rh and SD ([2]; DLS buffer system A, 0 weeks): 1.86 ± 0.03 nm | I and SD (Scattering Intensity) [2, 4]: 80 ± 3% | M and SD (Mass Contribution) [2, 4]: 100 ± 0% | apparent Rh and SD [2, 4]: 1.87 ± 0.03 nm | I and SD (Scattering Intensity) [2, 5]: 82 ± 3% | M and SD (Mass Contribution) [2, 5]: 100 ± 0% | apparent Rh and SD [2, 5]: 1.85 ± 0.04 nm | I and SD (Scattering Intensity) [2, 6]: 97 ± 4% | M and SD (Mass Contribution) [2, 6]: 100 ± 0% | apparent Rh and SD [2, 6]: 1.73 ± 0.03 nm | AUC(0-t) ([3]; iv, 0.25 mg/kg i.v.): 54500 ng·h/mL | Cmax ([3]; iv, 0.25 mg/kg i.v.): 5600 ng/mL | half-life ([3]; iv, 0.25 mg/kg i.v.): 14.8 h | clearance ([3]; iv, 0.25 mg/kg i.v., read-out: CI (converted)): 4.19 mL/h/kg | AUC(0-t) ([3]; sc, 0.5 mg/kg s.c.): 72900 ng·h/mL | Cmax ([3]; sc, 0.5 mg/kg s.c.): 2490 ng/mL | bioavailability ([3]; sc, 0.5 mg/kg s.c.): 73% | half-life ([3]; sc, 0.5 mg/kg s.c.): 16.9 h
